Results on 71 compounds are retold here after US20110245284A1, “Alkoxy- and Alkylthio-Substituted Anilinopyrimidines” (Bayer CropScience AG, priority 2008, published 2011).

The structures appear in SMILES notation.

The chromatographic logP is a lipophilicity value derived from retention on a column. Low values mean lower lipophilicity, high ones higher lipophilicity.

Data set [1] in a line: logP by LC-MS on reversed-phase columns (C 18), method [b], acidic range pH 2.7. It is filed as physicochemical. As to conditions: for chromatographic logP: pH 2.7, log p. The procedure:
(§1) The logP values were determined in accordance with EEC Directive 79/831 Annex V.A8 by HPLC (High Performance Liquid Chromatography) on reversed-phase columns (C 18), using the methods below:
[b] The LC-MS determination in the acidic range is carried out at pH 2.7 using the mobile phases 0.1% aqueous formic acid and acetonitrile (contains 0.1% formic acid), linear gradient from 10% acetonitrile to 95% acetonitrile.

The test system of data set [2] is Leptosphaeria nodorum. The data set can be described thus: Leptosphaeria nodorum test (wheat) / protective. It is filed as in vivo. The following applies: Parastagonospora nodorum, active compound concentration 500 ppm, evaluation 7-9 days after inoculation, read-out: efficacy. The procedure:
Thereafter, the plants are placed in a greenhouse at 90% relative atmospheric humidity and a temperature of 22° C.

A short description of data set [3]: logP by LC-MS on reversed-phase columns (C 18), method [c], neutral range pH 7.8. It is filed as physicochemical. As to conditions: pH 7.8. The procedure: as §1
[c] The LC-MS determination in the neutral range is carried out at pH 7.8 using the mobile phases 0.001 molar aqueous ammonium bicarbonate solution and acetonitrile, linear gradient from 10% acetonitrile to 95% acetonitrile.

[4] abbreviates: method [b], LC-MS, acidic range pH 2.7.

As for `COCCOCCOc1ccc(Nc2ncc(Br)c(NC3CC3)n2)cc1` [Example 2], in data set [1] (pH 2.7), the log p is 1.69[b]. On the same count and under the same terms, the value for `C=C(C)CSc1cccc(Nc2ncc(Br)c(NC3CC3)n2)c1` [Example 3] was 4.25[b].

Consider `COCC(C)Oc1ccc(Nc2ncc(Br)c(NC3CC3)n2)cc1Cl` (stereo not shown) [Example 4], for which the log p in data set [1] (pH 2.7) was 2.75[b]. `COC(c1cccc(Nc2ncc(Br)c(NC3CCC3)n2)c1)C(F)(F)F` (stereo not shown) [Example 10]: in data set [1] (pH 2.7), the log p was 3[b]. Same read-out and setting: the value for `CCSC(C)c1cccc(Nc2ncc(Cl)c(NC3CCC3)n2)c1` (stereo not shown) [Example 11] was 3.25[b]. Consider `CSC(C)c1cccc(Nc2ncc(C(F)(F)F)c(NC3CCCC3)n2)c1` (stereo not shown) [Example 16], for which, in data set [1], the chromatographic logP amounted to 4.48. The pest or weed control at 500 ppm in data set [2] is at least 70%. Take `COC(C)c1cccc(Nc2ncc(C(F)(F)F)c(NC3CCCC3)n2)c1` (stereo not shown) [Example 17]: the chromatographic logP in data set [1] was 4.13. In data set [2], the pest or weed control at 500 ppm was at least 70%.

Turning to `COC(c1cccc(Nc2ncc(Cl)c(NC3CCC3)n2)c1)C(F)(F)F` (stereo not shown) [Example 21], the log p in data set [1] (pH 2.7) was 2.99[b]. Still for that read-out and setting: the value for `COC(c1cccc(Nc2ncc(Cl)c(NCC(F)F)n2)c1)C(F)(F)F` (stereo not shown) [Example 23] was 2.93[b]; that for `CCSC(C)c1cccc(Nc2ncc(C(F)(F)F)c(NC3CCC3)n2)c1` (stereo not shown) [Example 36] was 4.75[b]. On to `CCSC(C)c1cccc(Nc2ncc(C(F)(F)F)c(NC3CCCC3)n2)c1` (stereo not shown) [Example 37], for which the chromatographic logP in data set [1] was determined as 5.2. The pest or weed control at 500 ppm in data set [2] is at least 70%. With `C=C(C)CSc1cccc(Nc2ncc(Cl)c(NC3CC3)n2)c1` [Example 38], the log p in data set [1] (pH 2.7) was 3.59[b]. On the same count and under the same terms, the value for `CCS(=O)(=O)C(C)c1cccc(Nc2ncc(C(F)(F)F)c(NC3CCCC3)n2)c1` (stereo not shown) [Example 39] was 3.27[b]; that for `CCS(=O)(=O)C(C)c1cccc(Nc2ncc(C(F)(F)F)c(NCC3CC3)n2)c1` (stereo not shown) [Example 41] was 2.65[b]. Consider `CC[S+]([O-])C(C)c1cccc(Nc2ncc(C(F)(F)F)c(NC3CCCC3)n2)c1` (stereo not shown) [Example 42], for which the log p in data set [1] (pH 2.7) was 2.87[b]. Same read-out and setting: the value for `CC[S+]([O-])C(C)c1cccc(Nc2ncc(C(F)(F)F)c(NCC3CC3)n2)c1` (stereo not shown) [Example 44] was 2.3[b]; that for `CCS(=O)(=O)C(C)c1cccc(Nc2ncc(C(F)(F)F)c(NC3CC3)n2)c1` (stereo not shown) [Example 46] was 2.49[b]. On to `COCc1cc(COC)cc(Nc2ncc(Cl)c(NC3CCC3)n2)c1` [Example 47], for which the log p in data set [1] (pH 2.7) was 2.06[b]. For `CCOCCOc1cc(Nc2ncc(Cl)c(NC3CC3)n2)ccc1C` [Example 48], the log p in data set [1] (setting [4]) is 2.23[b]. In the case of `O=S(=O)(CCCl)c1cc(Nc2ncc(Cl)c(NC3CC3)n2)ccc1Cl` [Example 49], the log p in data set [1] (setting [4]) is 2.67[b].

Turning to `Clc1cnc(Nc2cccc(COc3ccccc3)c2)nc1NC1CC1` [Example 50], in data set [1], the chromatographic logP came out at 2.92. Further, the pest or weed control at 500 ppm in data set [2] is at least 70%. The compound `CCS(=O)(=O)c1ccc(Nc2ncc(Cl)c(NC3CC3)n2)cc1` [Example 54] showed a chromatographic logP in data set [1] of 2.04. Turning to `CCS(=O)(=O)c1ccc(Nc2ncc(C(F)(F)F)c(NC3CC3)n2)cc1` [Example 55], in data set [1] (pH 2.7), the log p is 2.66[b]. For the compound `COCCOc1ccc(Nc2ncc(Cl)c(NC3CC3)n2)cc1Cl` [Example 68], the chromatographic logP in data set [1] amounted to 2.12. In addition, the pest or weed control at 500 ppm in data set [2] was at least 70%. In the case of `COCc1cccc(Nc2ncc(Cl)c(N(C)CCCN3CCCCCC3=O)n2)c1` [Example 69], the log p in data set [1] (pH 2.7) is 1.91[b].

For the compound `COCC(C)Oc1ccc(Nc2ncc(Cl)c(NC3CC3)n2)cc1C(F)(F)F` (stereo not shown) [Example 72], in data set [1] (pH 2.7), the log p was 2.91[b]. In the case of `Fc1cccc(Nc2ncc(Cl)c(NC3CC3)n2)c1` [Example 86], the log p in data set [1] (pH 2.7) was 1.87[b]. For the compound `COCc1cccc(Nc2ncc(Cl)c(N3CCCC3)n2)c1` [Example 87], the log p in data set [3] is 3.83[c];. On to `CCCN(c1nc(Nc2cccc(COC)c2)ncc1Cl)C1CC1` [Example 136], for which the log p in data set [1] (pH 2.7) is 3.68[b]. For the compound `COCc1cccc(Nc2ncc(Cl)c(N3CCCCCC3)n2)c1` [Example 139], the log p in data set [1] (pH 2.7) is 2.88[b].

`CCN(c1nc(Nc2cccc(COC)c2)ncc1Cl)C(C)C` [Example 140] displayed a chromatographic logP in data set [1] of 3. In turn, `CCCN(C)c1nc(Nc2cccc(COC)c2)ncc1Cl` [Example 141] displayed a chromatographic logP in data set [1] of 2.55.

Regarding `COCc1cccc(Nc2ncc(Cl)c(NCC(C)(C)C)n2)c1` [Example 142], the chromatographic logP in data set [1] worked out at 2.48. Further, the pest or weed control at 500 ppm in data set [2] was at least 70%. With `CCCC(C)Nc1nc(Nc2cccc(COC)c2)ncc1Cl` (stereo not shown) [Example 143], the chromatographic logP in data set [1] was found to be 2.41. In turn, `CCC(CC)Nc1nc(Nc2cccc(COC)c2)ncc1Cl` [Example 144] yielded a chromatographic logP in data set [1] of 2.3. For the same compound, the pest or weed control at 500 ppm in data set [2] is at least 70%. `CCC(C)CNc1nc(Nc2cccc(COC)c2)ncc1Cl` (stereo not shown) [Example 145] showed a chromatographic logP in data set [1] of 2.37. On to `COCc1cccc(Nc2ncc(Cl)c(NCCC(C)C)n2)c1` [Example 146], for which the chromatographic logP in data set [1] came out at 2.37. `CCCCCNc1nc(Nc2cccc(COC)c2)ncc1Cl` [Example 147] yielded a chromatographic logP in data set [1] of 2.41. Regarding `CCS(=O)(=O)C(C)c1cccc(Nc2ncc(Br)c(NC3CCC3)n2)c1` (stereo not shown) [Example 153], the log p in data set [1] (pH 2.7) was 2.03[b].

In the case of `COCCOCCOc1ccc(Nc2ncc(C(F)(F)F)c(NC3CC3)n2)cc1Cl` [Example 156], the log p in data set [1] (pH 2.7) was 3.2[b]. For the compound `COCCOc1ccc(Nc2ncc(C(F)(F)F)c(NC3CC3)n2)cc1C` [Example 157], the chromatographic logP in data set [1] worked out at 2.14. With `CCCS(=O)(=O)c1cccc(Nc2ncc(Br)c(NC3CCC3)n2)c1` [Example 159], in data set [1], the chromatographic logP stood at 2.81. Moreover, the pest or weed control at 500 ppm in data set [2] is at least 70%. In the case of `CCCC(C)S(=O)(=O)C(C)c1cccc(Nc2ncc(C(F)(F)F)c(NC3CC3)n2)c1` (stereo not shown) [Example 168], in data set [1] (pH 2.7), the log p was 3.47[b]. As to `COCCOCCOc1ccc(Nc2ncc(Cl)c(NC3CC3)n2)cc1Cl` [Example 173], the log p in data set [1] (pH 2.7) is 2.12[b]. Consider `COCCOc1ccc(Nc2ncc(Cl)c(NC3CC3)n2)cc1C` [Example 174], for which the chromatographic logP in data set [1] amounted to 1.43.

Consider `CCOCCOc1ccc(Nc2ncc(C(F)(F)F)c(NC3CC3)n2)cc1Cl` [Example 184], for which the chromatographic logP in data set [1] turned out to be 3.72. On to `CCOCCOc1ccc(Nc2ncc(C(F)(F)F)c(NC3CC3)n2)cc1C(F)(F)F` [Example 186], for which the chromatographic logP in data set [1] was 4.09.

Regarding `CCSC(C)c1cccc(Nc2ncc(Cl)c(NC3CC3CC)n2)c1` (stereo not shown) [Example 196], in data set [1] (setting [4]), the log p is 3.99[b]. Same read-out and setting: the value for `CCC1CC1Nc1nc(Nc2cccc(C(C)OC)c2)ncc1Cl` (stereo not shown) [Example 197] was 2.76[b]; that for `COCc1cccc(Nc2ncc(Br)c(NC3CC(C)C3)n2)c1` (stereo not shown) [Example 200] was 2.55[b]. Consider `COCc1cccc(Nc2ncc(Cl)c(NC3CC3C(F)(F)F)n2)c1` (stereo not shown) [Example 208], for which the log p in data set [1] (pH 2.7) was 2.64[b].

`COCCOc1cccc(Nc2ncc(Cl)c(NC3CC3C(F)(F)F)n2)c1` (stereo not shown) [Example 210]: the log p in data set [1] (pH 2.7) was 2.66[b].

Take `COC(C)c1cccc(Nc2ncc(Br)c(NC3CC(C)C3)n2)c1` (stereo not shown) [Example 212]: the log p in data set [1] (setting [4]) was 2.84[b]. As to `COCC(C)Oc1ccc(Nc2ncc(Br)c(NC3CC(C)C3)n2)cc1` (stereo not shown) [Example 213], in data set [1] (pH 2.7), the log p was 2.27[b]. Take `CCSC(C)c1cccc(Nc2ncc(Br)c(NC3CC(C)C3)n2)c1` (stereo not shown) [Example 214]: in data set [1] (pH 2.7), the log p is 3.85[b]. As for `COCCOC(c1cccc(Nc2ncc(C(F)(F)F)c(NCC3CC3)n2)c1)C(F)(F)F` (stereo not shown) [Example 220], the log p in data set [3] was 4.2[c]. `COCC(C)Oc1ccc(Nc2ncc(Cl)c(NC3CC3C(F)(F)F)n2)cc1` (stereo not shown) [Example 221]: the log p in data set [1] (pH 2.7) was 2.48[b]. On the same count and under the same terms, the value for `CS(=O)(=O)Cc1cccc(Nc2ncc(Cl)c(NC3CC3C(F)(F)F)n2)c1` (stereo not shown) [Example 222] was 1.96[b]; that for `CCSC(C)c1cccc(Nc2ncc(Cl)c(NC3CC3C(F)(F)F)n2)c1` (stereo not shown) [Example 223] was 3.93[b]; that for `FC(F)(F)COCc1cccc(Nc2ncc(Cl)c(NC3CC3)n2)c1` [Example 224] was 2.56[b].

`FC(F)(F)c1cnc(Nc2cccc(COc3ccc4c(c3)OCO4)c2)nc1NC1CC1` [Example 227]: in data set [1] (pH 2.7), the log p was 3.9[b]. With `Clc1cnc(Nc2cccc(COc3ccc4c(c3)OCO4)c2)nc1NC1CC1` [Example 230], in data set [3], the log p is 3.87[c]. For `FC(F)C(F)(F)COCc1cccc(Nc2ncc(C(F)(F)F)c(NC3CC3)n2)c1` [Example 231], in data set [1] (pH 2.7), the log p is 3.7[b]. With `FC(F)C(F)(F)COCc1cccc(Nc2ncc(Cl)c(NC3CC3)n2)c1` [Example 232], the log p in data set [1] (pH 2.7) is 2.69[b].

With `CCOC(CSc1cccc(Nc2ncc(C(F)(F)F)c(NC3CC3)n2)c1)OCC` [Example 236], in data set [3], the log p is 4.55[c]. For `COC(COCc1cccc(Nc2ncc(C(F)(F)F)c(NC3CC3)n2)c1)OC` [Example 237], the log p in data set [3] is 3.37[c].

With `FC(F)(F)OCCOc1cccc(Nc2ncc(Cl)c(NC3CC3)n2)c1` [Example 241], the chromatographic logP in data set [1] came out at 2.72. For the compound `CCOCCOCc1cccc(Nc2ncc(Cl)c(NC3CC3)n2)c1` [Example 248], the chromatographic logP in data set [1] is 2.03. Still for that read-out and setting: the value for `CCOCCOCc1cccc(Nc2ncc(C(F)(F)F)c(NC3CC3)n2)c1` [Example 250] was 3.17.

As to `CCOCCOCc1cccc(Nc2ncc(Cl)c(NC3CC3)n2)c1` [Example 252], the log p in data set [1] (pH 2.7) is 2.51[b].

On to `CCOCCOCc1cccc(Nc2ncc(C(F)(F)F)c(NC3CC3)n2)c1` [Example 253], for which, in data set [1] (pH 2.7), the log p was 2.73[b].
